Converted amounts (≈) assume the structure as drawn. Like-named read-outs stand apart in the source and are kept apart here.
Tests used:
[1] = tested on: S. maltophilia ATCC 13637; assay: Antibacterial activity: MIC/MBC, MIC with PAβN, disc-diffusion; type: cell-based, Stenotrophomonas maltophilia
Experimental: (§1) Direct antimicrobial activity was determined against the following standard strains: (1) Gram-positive cocci: methicillin-sensitive Staphylococcus aureus ATCC 6538P (MSSA), methicillin-resistant S. aureus subsp. aureus ATCC 43300 (MRSA), S. epidermidis ATCC 12228, Enterococcus faecium ATCC 6057, E. faecalis ATCC 29212, Bacillus subtilis ATCC 6633; (2) Gram-negative bacteria from Enterobacteriales order: Klebsiella pneumoniae ATCC 13883, Escherichia coli ATCC 25922, Enterobacter cloacae DSM 6234, Proteus mirabilis ATCC 12453, Serratia marcescens ATCC 13880; (3) Gram-negative non-fermentative rods: Acinetobacter baumannii ATCC 19606, Pseudomonas aeruginosa ATCC 27853, Stenotrophomonas maltophilia ATCC 12714, S. maltophilia ATCC 13637, Burkholderia cepacia ATCC 25416, Bordetella bronchiseptica ATCC 4617; (4) yeasts: Candida albicans ATCC 90028, C. krusei ATCC 6258, C. parapsilosis ATCC 22019, C. tropicalis (Castellani) Berkhout ATCC 750, C. tropicalis IBA 171, C. guilliermondii IBA 155, and Saccharomyces cerevisiae ATCC 9763. Moreover, 5 clinical strains of methicillin-resistant S. aureus were also included: NMI 664 K, NMI 1576 K, NMI 1712 K, NMI 1991 K, and NMI 2541 K. All strains were stored at −80 °C. Prior to testing, each bacterial strain was subcultured twice on tryptic soy agar TSA (bioMerieux) medium and yeast strains on Sabouraud dextrose agar (bioMerieux) for 24–48 h at 30 °C to ensure viability. The antimicrobial activity was evaluated as previously described[26] by the disc-diffusion method and the MIC determination assays according to the EUCAST (ref. [71] and [72]) and CLSI (ref. [53] and [73]) recommendations. Assessment of bactericidal (MBC) and fungicidal (MFC) activities was performed according to the CLSI recommendations.[54,74] […] The new benzosiloxaboroles were dissolved in DMSO (Sigma).
(§2) Considering that the MDR efflux pumps often contribute to Gram-negative rod resistance, the MIC values of studied agents, with or without the pump inhibitor, PAβN (20 μg mL^−1) (Sigma), were determined.[75] The MIC was determined using Mueller–Hinton II broth medium (MHB) (Becton Dickinson) by the broth microdilution method, according to the CLSI guideliness.[53] To minimize the influence of PAβN on the destabilization of bacterial cell covers, the tests were conducted in the presence of 1 mM MgSO4 (Sigma).[76] At least a 4-fold reduction in the MIC value after the addition of PAβN was considered significant.[56,77]

K. pneumoniae ATCC 13883 = assay: as above; type: cell-based, Klebsiella pneumoniae; conditions: for MIC: Klebsiella pneumoniae, ATCC13883
Experimental: as §1, §2

S. marcescens ATCC 13880 = assay: as above; type: cell-based, Serratia marcescens; conditions: for MIC: Serratia marcescens, ATCC13880
Experimental: as §1, §2

S. cerevisiae ATCC 9763 = assay: Antifungal activity: MIC/MFC, disc-diffusion; type: cell-based, Saccharomyces cerevisiae
Experimental: (§3) Direct antimicrobial activity was determined against the following standard strains: (1) Gram-positive cocci: methicillin-sensitive Staphylococcus aureus ATCC 6538P (MSSA), methicillin-resistant S. aureus subsp. aureus ATCC 43300 (MRSA), S. epidermidis ATCC 12228, Enterococcus faecium ATCC 6057, E. faecalis ATCC 29212, Bacillus subtilis ATCC 6633; (2) Gram-negative bacteria from Enterobacteriales order: Klebsiella pneumoniae ATCC 13883, Escherichia coli ATCC 25922, Enterobacter cloacae DSM 6234, Proteus mirabilis ATCC 12453, Serratia marcescens ATCC 13880; (3) Gram-negative non-fermentative rods: Acinetobacter baumannii ATCC 19606, Pseudomonas aeruginosa ATCC 27853, Stenotrophomonas maltophilia ATCC 12714, S. maltophilia ATCC 13637, Burkholderia cepacia ATCC 25416, Bordetella bronchiseptica ATCC 4617; (4) yeasts: Candida albicans ATCC 90028, C. krusei ATCC 6258, C. parapsilosis ATCC 22019, C. tropicalis (Castellani) Berkhout ATCC 750, C. tropicalis IBA 171, C. guilliermondii IBA 155, and Saccharomyces cerevisiae ATCC 9763. Moreover, 5 clinical strains of methicillin-resistant S. aureus were also included: NMI 664 K, NMI 1576 K, NMI 1712 K, NMI 1991 K, and NMI 2541 K. All strains were stored at −80 °C. Prior to testing, each bacterial strain was subcultured twice on tryptic soy agar TSA (bioMerieux) medium and yeast strains on Sabouraud dextrose agar (bioMerieux) for 24–48 h at 30 °C to ensure viability. The antimicrobial activity was evaluated as previously described[26] by the disc-diffusion method and the MIC determination assays according to the EUCAST (ref. [71] and [72]) and CLSI (ref. [53] and [73]) recommendations. Assessment of bactericidal (MBC) and fungicidal (MFC) activities was performed according to the CLSI recommendations.[54,74] The following reference agents were used: fluconazole (in the case of fungi), linezolid (for Gram-positive bacteria), and nitrofurantoin (for Gram-negative rods). The new benzosiloxaboroles were dissolved in DMSO (Sigma).

C. krusei ATCC 6258 = assay: Antifungal activity: MIC/MFC, disc-diffusion; type: cell-based; conditions: for MIC: Pichia kudriavzevii, ATCC6258
Experimental: as §1

P. mirabilis ATCC 12453 = assay: Antibacterial activity: MIC/MBC, MIC with PAβN, disc-diffusion; type: cell-based, Proteus mirabilis; conditions: for MIC: Proteus mirabilis, ATCC12453
Experimental: as §1, §2

E. faecalis ATCC 29212 = assay: Antibacterial activity: MIC/MBC determination and disc-diffusion; type: cell-based; conditions: Enterococcus faecalis, ATCC29212
Experimental: as §3

E. faecium ATCC 6057 = assay: as above; type: cell-based; conditions: Enterococcus faecium, ATCC6057
Experimental: as §3

[2] = tested on: S. aureus ATCC 43300 MRSA; assay: as above; type: cell-based; conditions: Staphylococcus aureus; for MBC: read-out: MBC (first MBC where Eagle effect)
Experimental: as §3

[3] = tested on: S. epidermidis ATCC 12228; assay: as above; type: cell-based; conditions: Staphylococcus epidermidis, ATCC12228
Experimental: as §3

[4] = Stenotrophomonas maltophilia, ATCC13637, S. maltophilia ATCC 13637, read-out: MIC
[5] = K. pneumoniae ATCC 13883, read-out: MIC
[6] = S. marcescens ATCC 13880, read-out: MIC
[7] = Saccharomyces cerevisiae, ATCC9763, read-out: MIC
[8] = P. mirabilis ATCC 12453, read-out: MIC
[9] = E. faecalis ATCC 29212, read-out: MIC
[10] = E. faecium ATCC 6057, read-out: MIC
[11] = S. aureus ATCC 43300 MRSA, read-out: MIC
[12] = S. epidermidis ATCC 12228, read-out: MIC

SMILES | MIC [1, 4] [µg/mL] | MIC (K. pneumoniae ATCC 13883; [5]) [µg/mL] | MIC (S. marcescens ATCC 13880; [6]) [µg/mL] | MIC (S. cerevisiae ATCC 9763; [7]) [µg/mL] | MIC (C. krusei ATCC 6258; read-out: MIC) [µg/mL] | MIC (P. mirabilis ATCC 12453; [8]) [µg/mL] | MIC (E. faecalis ATCC 29212; [9]) [µg/mL] | MIC (E. faecium ATCC 6057; [10]) [µg/mL] | MBC ([2]; S. aureus ATCC 43300 MRSA) [µg/mL] | MIC [2, 11] [µg/mL] | MBC ([3]; S. epidermidis ATCC 12228) [µg/mL] | MIC [3, 12] [µg/mL] | other results
C[Si]1(C)OB(O)c2cc(F)c(SCCC(=O)Nc3cnccn3)c(F)c21 [Compound 10, 3-((5,7-Difluoro-3-hydroxy-1,1-dimethyl-1,3-dihydrobenzo[c][1,2,5]oxasilaborol-6-yl)thio)-N-(pyrazin-2-yl)propanamide] | > 400 | > 400 | > 400 | > 400 | > 400 | > 400 | 200 (≈ 506 µM) | 100 (≈ 253 µM) | 400 (≈ 1010 µM) | 50 (≈ 126 µM) | 400 (≈ 1010 µM) | 50 (≈ 126 µM) | 
C[Si]1(C)OB(O)c2ccc(SC3CC(=O)NC3=O)c(F)c21 (centres unmarked) [Compound 13, 3-((7-Fluoro-3-hydroxy-1,1-dimethyl-1,3-dihydrobenzo[c][1,2,5]oxasilaborol-6-yl)thio)pyrrolidine-2,5-dione] | 25 (≈ 76.9 µM) | 200 (≈ 615 µM) | 100 (≈ 308 µM) | > 400 | > 400 | 400 (≈ 1230 µM) | 25 (≈ 76.9 µM) | 12.5 (≈ 38.4 µM) |  | 25 (≈ 76.9 µM) |  | 25 (≈ 76.9 µM) | diameter of inhibition zone ([1]; S. maltophilia ATCC 13637, (-) = zone not observed, paper discs 9 mm): 19 mm; MBC ([1]; Stenotrophomonas maltophilia, ATCC13637, S. maltophilia ATCC 13637): 50 µg/mL (≈ 154 µM); diameter of inhibition zone (K. pneumoniae ATCC 13883; K. pneumoniae ATCC 13883, (-) = zone not observed, paper discs 9 mm): 19 mm; -fold reduction of MIC in the presence of PAβN (K. pneumoniae ATCC 13883; K. pneumoniae ATCC 13883, PAβN 20 μg mL^−1, MHB + 1 mM MgSO4): 4 -fold; diameter of inhibition zone (S. marcescens ATCC 13880; S. marcescens ATCC 13880, (-) = zone not observed, paper discs 9 mm): 29 mm; -fold reduction of MIC in the presence of PAβN (S. marcescens ATCC 13880; S. marcescens ATCC 13880, PAβN 20 μg mL^−1, MHB + 1 mM MgSO4): 2 -fold; diameter of inhibition zone (P. mirabilis ATCC 12453; P. mirabilis ATCC 12453, (-) = zone not observed, paper discs 9 mm): 18 mm; -fold reduction of MIC in the presence of PAβN (P. mirabilis ATCC 12453; P. mirabilis ATCC 12453, PAβN 20 μg mL^−1, MHB + 1 mM MgSO4): 4 -fold
CCOP(=O)(OCC)Sc1c(F)cc2c(c1F)[Si](C)(C)OB2O [Compound 24, S-(5,7-Difluoro-3-hydroxy-1,1-dimethyl-1,3-dihydrobenzo[c][1,2,5]oxasilaborol-6-yl) O,O-diethyl phosphorothioate] |  |  |  |  |  |  |  |  |  |  |  |  | MIC ([1]; Stenotrophomonas maltophilia, ATCC13637): > 400 µg/mL; MIC (K. pneumoniae ATCC 13883): > 400 µg/mL; MIC (S. marcescens ATCC 13880): > 400 µg/mL; MIC (S. cerevisiae ATCC 9763; Saccharomyces cerevisiae, ATCC9763): > 400 µg/mL; MIC (C. krusei ATCC 6258): > 400 µg/mL; MIC (P. mirabilis ATCC 12453): > 400 µg/mL; MIC (E. faecalis ATCC 29212): > 400 µg/mL; MIC (E. faecium ATCC 6057): 400 µg/mL (≈ 1050 µM); MIC [2]: 12.5 µg/mL (≈ 32.7 µM); MBC [2]: > 400 µg/mL; MIC [3]: 100 µg/mL (≈ 262 µM)
C[Si]1(C)OB(O)c2ccc(SC3CC(=O)N(c4ccc(Br)c(C(F)(F)F)c4)C3=O)c(F)c21 (centres unmarked) [Compound 17, 1-(4-Bromo-3-(trifluoromethyl)phenyl)-3-((7-fluoro-3-hydroxy-1,1-dimethyl-1,3-dihydrobenzo[c][1,2,5]oxasilaborol-6-yl)thio)pyrrolidine-2,5-dione] | > 200 | > 200 | > 200 | 6.25 (≈ 11.4 µM) | 100 (≈ 182 µM) | > 200 | 12.5 (≈ 22.8 µM) | 25 (≈ 45.6 µM) | 100 (≈ 182 µM) | 25 (≈ 45.6 µM) | 100 (≈ 182 µM) | 12.5 (≈ 22.8 µM) | diameter of inhibition zone (S. cerevisiae ATCC 9763; S. cerevisiae ATCC 9763, (-) = zone not observed, paper discs 9 mm): 33 mm; MFC (S. cerevisiae ATCC 9763; Saccharomyces cerevisiae, ATCC9763, S. cerevisiae ATCC 9763): 100 µg/mL (≈ 182 µM); diameter of inhibition zone (C. krusei ATCC 6258; C. krusei ATCC 6258, (-) = zone not observed, paper discs 9 mm): 18 mm; MBC (E. faecalis ATCC 29212; E. faecalis ATCC 29212): 200 µg/mL (≈ 365 µM)
C[Si]1(C)OB(O)c2cc(F)c(S(=O)(=O)N3CCOCC3)c(F)c21 [Compound 29, 5,7-Difluoro-1,1-dimethyl-6-(morpholinosulfonyl)benzo[c][1,2,5]oxasilaborol-3(1H)-ol] | > 400 | > 400 | > 400 |  |  | > 400 | > 400 | 400 (≈ 1100 µM) |  | 400 (≈ 1100 µM) |  | 400 (≈ 1100 µM) | 

Reference: paper PMC11110727, “Exploiting thiol-functionalized benzosiloxaboroles for achieving diverse substitution patterns – synthesis, characterization and biological evaluation of promising antibacterial agents” (RSC Medicinal Chemistry, 2024)
